Legend:
CD4+ T cells [1] = test: T cell receptor-induced CD4+ T cell proliferation (CFSE, flow cytometry); format: cell-based, human; conditions: 10 μg/mL αCD3 + 2 μg/mL αCD28, 6 days; for IC50: Homo sapiens, CD4+ T, 144 h, division index by CFSE, n=4, ±sem, read-out: pIC50, T cell receptor-induced proliferation of CD4+ T cells (converted)
Procedure: (§1) 15 mls ficoll was added to 8×50 mL accuspin tubes per donor and centrifuged at 2000 RPM for 1 min. Whole blood samples (200 mL+1% heparin) were collected from human donors. Approximately 25 ml blood was added to each ficoll pre-filled 50 ml falcon tubes with filter and centrifuged at 1500 RPM for 20 min with the brake off to avoid disturbing cell separation. 45 ml with PBS was added to the PBMC fraction of each tube and centrifuged at 1500 RPM for 10 min with brake. Supernatant were discarded and cell pellets resuspended in 2 ml PBS. Cell suspensions for each donor were recombined into a single falcon tube, made up to 45 ml with PBS and centrifuged at 1500 RPM for 10 min. CD4+ T cells were isolated by negative depletion using a CD4 T cell Isolation Kit from Miltenyi Biotech according to manufacturers protocol.
96-well flat-bottom plates were coated with 10 μg/mL anti-CD3+2 μg/mL anti-CD28 at 4° C. overnight. The following day, plates were washed with PBS. For proliferation studies, cells were stained with CFSE (Invitrogen) according to manufacturer's protocol. […] Cells were then transferred to 96-well round-bottom plates, washed and then analysed by flow cytometry.
(§2) Anti-CD3 (HU CD3 NALE MAB UCHT1; Cat #555329) and anti-CD28 (HU CD28 NALE MAB CD28.2; Cat #: 555725), were obtained from BD Pharmingen and dissolved in Dulbecco's Phosphate Buffered Saline (with Ca2+/Mg2+; Gibco). Ficoll-paque (Cat #17-1440-03) was obtained from GE Healthcare. The CD4+ T cell isolation kit (Cat #130-091-155) was obtained from Miltenyi Biotec. Cells were cultured in RPMI 1640 containing 10% FCS+1% pen/strep+1% L-glutamine. The CellTrace CFSE cell proliferation kit (Cat #C34554) was obtained from Invitrogen. Compound A, Compound B and Compound C were all synthesised in house and dissolved in 100% DMSO.
Flowjo Software was used to calculate a division index using fluorescence intensity. Data are expressed as mean±standard error of the mean; n values are the numbers of human donors used. pIC50 values were generated using GraphPad Prism software and non-linear sigmoid dose curve-fit.

CD4+ T cells [2] = test: T cell receptor-induced cytokine production in CD4+ T cells (multiplex ELISA); format: cell-based, human; conditions: for IC50: Homo sapiens, CD4+ T, n=4, ±sem, read-out: pIC50, T cell receptor-induced production of IL-2 in CD4+ T cells (converted)
Procedure: as §1
96-well flat-bottom plates were coated with 10 μg/mL anti-CD3+2 μg/mL anti-CD28 at 4° C. overnight. The following day, plates were washed with PBS. For cytokine production studies, cells were added to anti-CD3+anti-CD28 pre-coated 96-well plates at 0.4×10^6 cells/well in the presence of EZH1/EZH2 inhibitors or vehicle and incubated at 37° C./5% CO2. Supernatants were taken 18 h (IL-2) or 72 h (IL-10, IL-13, IL-17, IFN, TNF) for determination of cytokine production by multiplex ELISA from Mesoscale discovery according to the manufacturers protocols.
as §2
Data were analysed using Excel and are expressed as mean±standard error of the mean; n values are the numbers of human donors used. pIC50 values were generated using GraphPad Prism software and non-linear sigmoid dose curve-fit.

| IC50 (CD4+ T cells [2]; 18 h post stimulation) | Structure (SMILES) | IC50 (CD4+ T cells [1]) | effect on T cell receptor-induced proliferation of CD4+ T cells (CD4+ T cells [1]; n=4) | effect on T cell receptor-induced production of IL-2 in CD4+ T cells (CD4+ T cells [2]; 18 h post stimulation, n=4, a pIC50 could not be calculated) | effect on T cell receptor-induced production of IL-17 or IFN in CD4+ T cells (CD4+ T cells [2]; 72 h post stimulation, n=4) | effect on IL-10, IL-13 & TNF production (CD4+ T cells [2]; High concentrations (i.e. >15 μM), 72 h, n=4) |
| --- | --- | --- | --- | --- | --- | --- |
| 1.74 µM | Cc1cc(C)c(CNC(=O)c2cc(-c3ccc(N4CCN(C)CC4)nc3)cc3c2c(C)cn3C(C)C)c(=O)[nH]1 [Compound B, N-[(4,6-dimethyl-2-oxo-1,2-dihydro-3-pyridinyl)methyl]-3-methyl-1-(1-methylethyl)-6-[6-(4-methyl-1-piperazinyl)-3-pyridinyl]-1H-indole-4-carboxamide] | 11.7 µM |  |  |  |  |
| 0.575 µM | CCCc1cc(C)[nH]c(=O)c1CNC(=O)c1cc(-c2ccc(N3CCN(C)CC3)nc2)cc2c1cnn2C(C)C [Compound A, 1-(1-methylethyl)-N-[(6-methyl-2-oxo-4-propyl-1,2-dihydro-3-pyridinyl)methyl]-6-[6-(4-methyl-1-piperazinyl)-3-pyridinyl]-1H-indazole-4-carboxamide] | 5.01 µM |  |  |  |  |
|  | Cc1ccc(CNC(=O)c2cc(C3CC3)nc3c2cnn3C(C)C)c(=O)[nH]1 [Compound C, 6-cyclopropyl-1-(1-methylethyl)-N-[(6-methyl-2-oxo-1,2-dihydro-3-pyridinyl)methyl]-1H-pyrazolo[3,4-b]pyridine-4-carboxamide] |  | had no effect | impaired | had no effect | reduced |

— US9242962B2, “Method of treatment” (GlaxoSmithKline Intellectual Property (No. 2) Limited, priority 2011, dated 2016)
